{
  "source": "ChEMBL document CHEMBL5143655",
  "about": "“Synthesis and biological evaluation of 1,2,4-triazole derivatives as potential Nrf2 activators for the treatment of cerebral ischemic injury” (Eur J Med Chem, 2022)",
  "key": {"[1]": {"experiment": "Metabolic stability in human plasma assessed as parent compound remaining at 200 uM measured after 90 min by LC-MS/MS analysis relative to control", "type": "ADME, cell-free", "details": "read-out: Stability"}, "[2]": {"system": "Rattus norvegicus", "experiment": "(§1) Neuroprotective activity in Sprague-Dawley rat model of middle cerebral artery occlusion-induced ischemia-reperfusion injury assessed as decrease in cerebral infarct volume at 30 mg/kg, ip preincubated for 1 hrs followed by MCAO operation and further incubated with compound for 4 hrs after reperfusion by TTC staining based assay", "type": "functional", "parameters": "scale not given: the % may be the effect or the level left", "details": "time 5 hrs"}, "[3]": {"system": "PC-12", "experiment": "Neuroprotective activity against SNP-induced oxidative stress in rat PC-12 cells assessed as inhibition of ROS accumulation at 10 uM preincubated for 2 hrs followed by SNP stimulation for 24 hrs by DCFH-DA staining based fluorescence microscopic analysis", "type": "functional, cell-based"}, "[4]": {"experiment": "Cmax in Sprague-Dawley rat at 5 mg/kg, ip measured at 2 hrs by LC-MS/MS analysis", "type": "ADME, organism-based", "parameters": "dose 5 mg/kg, time 2 hrs, route ip", "details": "in vivo"}, "[5]": {"experiment": "Cmax in Sprague-Dawley rat at 5 mg/kg, iv measured upto 24 hrs by LC-MS/MS analysis", "type": "ADME, organism-based", "parameters": "dose 5 mg/kg, time < 24 hrs, route iv", "details": "in vivo"}, "[6]": {"experiment": "Half life in Sprague-Dawley rat at 5 mg/kg, ip measured upto 24 hrs by LC-MS/MS analysis", "type": "ADME, organism-based", "details": "in vivo"}, "[7]": {"system": "PC-12", "experiment": "Neuroprotective activity against SNP induced rat PC-12 cells assessed as increase in cell viability at 10 uM preincubated for 2 hrs followed by SNP stimulation for 24 hrs by MTT assay relative to control", "type": "functional"}, "[8]": {"experiment": "Metabolic stability in human plasma assessed as parent compound remaining at 200 uM measured after 120 min by LC-MS/MS analysis relative to control", "type": "ADME, cell-free", "details": "read-out: Stability"}, "[9]": {"molecular_target": "T1, Nuclear factor erythroid 2-related factor 2 (Rattus norvegicus) (UniProt O54968)", "T1 sequence (whole entry)": "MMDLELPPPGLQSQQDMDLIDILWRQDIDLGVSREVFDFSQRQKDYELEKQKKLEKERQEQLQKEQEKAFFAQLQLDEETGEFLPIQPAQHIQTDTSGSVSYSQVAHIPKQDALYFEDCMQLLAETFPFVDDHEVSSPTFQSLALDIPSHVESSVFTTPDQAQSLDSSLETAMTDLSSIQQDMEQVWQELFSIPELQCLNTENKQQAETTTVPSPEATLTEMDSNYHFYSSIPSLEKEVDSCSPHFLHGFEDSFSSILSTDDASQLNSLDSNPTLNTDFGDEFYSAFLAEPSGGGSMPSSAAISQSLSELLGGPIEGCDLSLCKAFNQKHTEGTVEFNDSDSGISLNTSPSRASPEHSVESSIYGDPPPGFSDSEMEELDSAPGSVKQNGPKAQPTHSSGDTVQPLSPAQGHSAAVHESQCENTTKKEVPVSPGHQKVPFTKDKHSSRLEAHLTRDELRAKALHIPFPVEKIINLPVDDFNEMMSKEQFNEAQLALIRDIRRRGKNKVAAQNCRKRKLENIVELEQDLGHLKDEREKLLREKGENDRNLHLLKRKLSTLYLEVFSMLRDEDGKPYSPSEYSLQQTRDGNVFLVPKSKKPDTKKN", "experiment": "Activation of Nrf2 pathway in rat PC-12 cells assessed as increase in HO-1 level at 2.5 to 10 uM measured after 3 hrs by Western blot analysis", "type": "cell-based", "details": "filed as activator, dose 2.5-10 µM"}, "[10]": {"system": "Rattus norvegicus", "experiment": "Neuroprotective activity in Sprague-Dawley rat model of middle cerebral artery occlusion-induced ischemia-reperfusion injury assessed as decrease in neurological score at 3 mg/kg, ip preincubated for 1 hrs followed by MCAO operation and further incubated with compound for 4 hrs after reperfusion", "type": "functional", "details": "time 5 hrs"}, "[11]": {"experiment": "Tmax in Sprague-Dawley rat at 5 mg/kg, ip measured upto 24 hrs by LC-MS/MS analysis", "type": "ADME, organism-based", "details": "in vivo"}, "[12]": {"molecular_target": "T1, Nuclear factor erythroid 2-related factor 2 (Rattus norvegicus)", "experiment": "Activation of Nrf2 pathway in rat PC-12 cells assessed as reversal of ML385 induced inhibition of Nrf2 protein expression at 10 uM measured after 3 hrs in the presence of Nrf2 signalling inhibitor ML385 by Western blot analysis", "type": "cell-based", "details": "filed as activator"}, "[13]": {"system": "Rattus norvegicus", "experiment": "as §1, with “10” for “30”", "type": "functional", "parameters": "scale not given: the % may be the effect or the level left", "details": "time 5 hrs"}, "[14]": {"experiment": "Cytotoxicity against rat PC-12 cells assessed as reduction in cell viability by MTT assay", "type": "toxicity, cell-based"}, "[15]": {"experiment": "Tmax in Sprague-Dawley rat at 5 mg/kg, iv measured upto 24 hrs by LC-MS/MS analysis", "type": "ADME, organism-based", "details": "in vivo"}, "[16]": {"experiment": "Cytotoxicity against human HaCaT cells assessed as reduction in cell viability by MTT assay", "type": "toxicity, cell-based"}, "[17]": {"system": "Rattus norvegicus", "experiment": "Neuroprotective activity in Sprague-Dawley rat model of middle cerebral artery occlusion-induced ischemia reperfusion injury assessed as increase in serum SOD level at 3 to 30 mg/kg, ip preincubated for 1 hrs followed by MCAO operation and further incubated with compound for 4 hrs after reperfusion", "type": "functional, organism-based", "details": "dose 3-30 mg/kg, time 5.0 hrs"}, "[18]": {"system": "Rattus norvegicus", "experiment": "as §1, with “3” for “30”", "type": "functional", "parameters": "scale not given: the % may be the effect or the level left", "details": "time 5 hrs"}, "[19]": {"system": "PC-12", "experiment": "Neuroprotective activity against SNP-induced apoptotic rat PC-12 cells assessed as restoration of cell number at 10 uM preincubated for 2 hrs followed by SNP stimulation for 24 hrs by Hoechst 33258 staining based fluorescence microscopic analysis", "type": "functional"}, "[20]": {"system": "PC-12", "experiment": "Neuroprotective activity against SNP induced rat PC-12 cells assessed as increase in cell viability at 1 uM preincubated for 2 hrs followed by SNP stimulation for 24 hrs by MTT assay relative to control", "type": "functional"}, "[21]": {"experiment": "Half life in Sprague-Dawley rat at 5 mg/kg, iv measured upto 24 hrs by LC-MS/MS analysis", "type": "ADME, organism-based", "details": "in vivo"}, "[22]": {"molecular_target": "Voltage-gated inwardly rectifying potassium channel KCNH2 (Homo sapiens, UniProt Q12809)", "sequence (Q12809 whole entry)": "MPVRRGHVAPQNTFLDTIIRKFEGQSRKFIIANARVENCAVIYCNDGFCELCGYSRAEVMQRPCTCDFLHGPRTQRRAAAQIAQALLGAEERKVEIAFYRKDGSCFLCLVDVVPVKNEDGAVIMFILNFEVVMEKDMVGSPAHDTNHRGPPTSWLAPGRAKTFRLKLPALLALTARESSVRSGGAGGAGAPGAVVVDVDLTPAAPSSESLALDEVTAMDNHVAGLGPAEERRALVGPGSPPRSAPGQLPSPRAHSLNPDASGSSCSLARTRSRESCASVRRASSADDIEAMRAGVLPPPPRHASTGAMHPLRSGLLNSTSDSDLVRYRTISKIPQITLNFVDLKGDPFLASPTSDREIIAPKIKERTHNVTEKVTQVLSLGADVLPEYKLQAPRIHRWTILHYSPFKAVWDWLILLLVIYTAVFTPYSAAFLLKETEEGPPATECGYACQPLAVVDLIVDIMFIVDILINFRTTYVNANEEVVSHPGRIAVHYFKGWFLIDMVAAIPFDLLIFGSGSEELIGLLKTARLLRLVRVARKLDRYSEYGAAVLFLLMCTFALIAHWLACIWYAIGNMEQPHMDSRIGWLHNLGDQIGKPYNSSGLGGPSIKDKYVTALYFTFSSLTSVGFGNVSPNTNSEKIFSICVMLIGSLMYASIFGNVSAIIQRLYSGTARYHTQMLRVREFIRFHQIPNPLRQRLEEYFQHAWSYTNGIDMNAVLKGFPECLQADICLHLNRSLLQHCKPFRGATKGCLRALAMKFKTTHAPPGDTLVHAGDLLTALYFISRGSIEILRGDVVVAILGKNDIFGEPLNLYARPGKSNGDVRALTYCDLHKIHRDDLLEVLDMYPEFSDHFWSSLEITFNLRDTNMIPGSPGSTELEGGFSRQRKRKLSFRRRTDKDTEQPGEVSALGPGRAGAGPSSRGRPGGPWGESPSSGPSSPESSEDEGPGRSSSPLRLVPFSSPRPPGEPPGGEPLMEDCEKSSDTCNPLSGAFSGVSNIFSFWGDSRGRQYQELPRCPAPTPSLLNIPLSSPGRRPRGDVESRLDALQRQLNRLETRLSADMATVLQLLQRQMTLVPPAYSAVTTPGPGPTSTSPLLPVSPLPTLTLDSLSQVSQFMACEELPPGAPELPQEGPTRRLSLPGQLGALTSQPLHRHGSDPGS", "experiment": "Inhibition of hERG channel expressed in HEK293 cells at -80 mV holding potential by automated patch clamp method", "type": "toxicity, cell-based"}, "[23]": {"system": "PC-12", "experiment": "Neuroprotective activity against SNP-induced apoptotic rat PC-12 cells assessed as restoration of cell morphology at 10 uM preincubated for 2 hrs followed by SNP stimulation for 24 hrs by Hoechst 33258 staining based fluorescence microscopic analysis", "type": "functional"}, "[24]": {"system": "PC-12", "experiment": "Neuroprotective activity against SNP induced rat PC-12 cells assessed as increase in cell viability at 5 uM preincubated for 2 hrs followed by SNP stimulation for 24 hrs by MTT assay relative to control", "type": "functional"}, "[25]": {"experiment": "Metabolic stability in human plasma assessed as half life at 200 uM by LC-MS/MS analysis relative to control", "type": "ADME, cell-free"}, "[26]": {"experiment": "Clearence in Sprague-Dawley rat at 5 mg/kg, iv measured upto 24 hrs by LC-MS/MS analysis", "type": "ADME, organism-based", "details": "in vivo"}, "[27]": {"system": "PC-12", "experiment": "Cytoprotective activity against SNP - induced oxidative stress in rat PC-12 cells assessed as restoration of mitochondrial membrane potential at 10 uM preincubated for 2 hrs followed by SNP stimulation for 24 hrs by JC-1 staining based fluorescence microscopic analysis", "type": "functional, cell-based"}, "[28]": {"experiment": "AUC (0 to infinity) in Sprague-Dawley rat at 5 mg/kg, ip measured upto 24 hrs by LC-MS/MS analysis", "type": "ADME, organism-based", "parameters": "time < 24 hrs, dose 5 mg/kg, route ip", "details": "in vivo"}, "[29]": {"experiment": "Acute toxicity in BALB/c mouse assessed as survival rate at 1000 mg/kg, ip measured after 7 days", "type": "organism-based", "details": "in vivo, 168 h, time 7 day"}, "[30]": {"molecular_target": "T1, Nuclear factor erythroid 2-related factor 2 (Rattus norvegicus)", "experiment": "Activation of Nrf2 pathway in rat PC-12 cells assessed as increase in GCLC level at 2.5 to 10 uM measured after 3 hrs by Western blot analysis", "type": "cell-based", "details": "filed as activator, dose 2.5-10 µM"}},
  "note": "Activity calls are given as the source filed them. The calls are words filed in the database; no cut-off is given here.",
  "data": [
    {"smiles": "Cc1cc(C)cc(-n2nc(-c3ccc(C(F)(F)F)cc3O)nc2-c2ccccc2O)c1", "values": [
      {"measurement": "remaining at 1.5 h, 200 µM", "setting": "[1]", "result": 89.5, "unit": "%"},
      {"measurement": "Activity", "setting": "[2]", "result": 12.23, "unit": "%"},
      {"measurement": "Activity", "setting": "[3]", "result": "Active"},
      {"measurement": "Cmax", "setting": "[4]", "result": 323, "unit": "ng/mL"},
      {"measurement": "Cmax", "setting": "[5]", "result": 6910, "unit": "ng/mL"},
      {"measurement": "half-life", "setting": "[6]", "result": 12.8, "unit": "h"},
      {"measurement": "Activity", "setting": "[7]", "result": 105.13, "unit": "%"},
      {"measurement": "remaining at 2 h, 200 µM", "setting": "[8]", "result": 88.9, "unit": "%"},
      {"measurement": "Activity", "setting": "[9]", "result": "Active"},
      {"measurement": "Activity", "setting": "[10]", "result": 1.87},
      {"measurement": "Tmax", "setting": "[11]", "result": 2, "unit": "h"},
      {"measurement": "Activity", "setting": "[12]", "result": "Active"},
      {"measurement": "Activity", "setting": "[13]", "result": 14.49, "unit": "%"},
      {"measurement": "IC50", "setting": "[14]", "result": 263, "unit": "µM"},
      {"measurement": "Tmax", "setting": "[15]", "result": 4.8, "unit": "min"},
      {"measurement": "IC50", "setting": "[16]", "result": 127, "unit": "µM"},
      {"measurement": "Activity", "setting": "[17]", "result": "Active"},
      {"measurement": "Activity", "setting": "[18]", "result": 16.37, "unit": "%"},
      {"measurement": "Activity", "setting": "[19]", "result": "Active"},
      {"measurement": "Activity", "setting": "[20]", "result": 76.86, "unit": "%"},
      {"measurement": "half-life", "setting": "[21]", "result": 8.26, "unit": "h"},
      {"measurement": "IC50", "setting": "[22]", "result": "> 30", "unit": "µM"},
      {"measurement": "Activity", "setting": "[23]", "result": "Active"},
      {"measurement": "Activity", "setting": "[24]", "result": 101.59, "unit": "%"},
      {"measurement": "half-life at 200 µM", "setting": "[25]", "result": "> 8.82", "unit": "h"},
      {"measurement": "CL", "setting": "[26]", "result": "0.0005 (mg/kg)/(ng/ml)/hr"},
      {"measurement": "Activity", "setting": "[27]", "result": "Active"},
      {"measurement": "AUC(0-inf)", "setting": "[28]", "result": 2930, "unit": "ng·h/mL"},
      {"measurement": "Activity", "setting": "[29]", "result": "Toxic"},
      {"measurement": "Activity", "setting": "[30]", "result": "Active"}
    ]}
  ]
}
